Data reported in patent US11090304B2 (Amgen Inc., priority 2018, dated 2021).
Read-outs that look alike come from different tables or passages of the source.

Experiments:
[1] = test system: Phosphorylation of ERK1/2 in MIA PaCa-2 cells; test: Phospho-ERK1/2 MSD assay in MIA PaCa-2 cells; type: cell-based; settings: read-out: p-ERK IC50 (2 h; MIA PaCa-2), 2 h compound treatment
Experimental: For compounds in Table 89, the following assay conditions were employed:
Phospho-ERK1/2 MSD Assay:
Sixteen hours prior to compound treatment, MIA PaCa-2 or A549 cells were seeded in 96-well cell culture plates at a density of 25,000 cells/well and incubated at 37° C., 5% CO2. A compound dose-response titration was diluted in growth media, added to appropriate wells of a cell culture plate, and then incubated at 37° C., 5% CO2 for 2 or 4 hours (see Table 15). Following compound treatment, cells were stimulated with 10 ng/mL EGF (Roche 11376454001) for 10 min, washed with ice-cold Dulbecco's phosphate-buffered saline, no Ca^2+ or Mg^2+ (ThermoFisher Scientific 14190144), and then lysed in RIPA buffer (50 mM Tris-HCl pH 7.5, 1% Igepal, 0.5% sodium deoxycholate, 150 mM NaCl, and 0.5% sodium dodecyl sulfate) containing protease inhibitors (Roche 4693132001) and phosphatase inhibitors (Roche 4906837001). Phosphorylation of ERK1/2 in compound-treated lysates was assayed using Phospho-ERK1/2 Whole Cell Lysate kits (Meso Scale Discovery K151DWD) according to the manufacturer's protocol. Assay plates were read on a Meso Scale Discovery Sector Imager 6000, and data were analyzed using a 4-parameter logistic model to calculate IC50 values.

[2] = biological target: GDP-bound KRAS protein (aa 1-169), containing both G12C and C118A amino acid substitutions (Homo sapiens, UniProt P01116, C118A/G12C); test: Coupled nucleotide exchange assay (SOS-mediated, AlphaScreen); type: biochemical; settings: 5 min compound pre-incubation
Sequence of GDP-bound KRAS protein (aa 1-169), containing both G12C and C118A amino acid substitutions (P01116 1-169 isoform P01116-2 G12C/C118A): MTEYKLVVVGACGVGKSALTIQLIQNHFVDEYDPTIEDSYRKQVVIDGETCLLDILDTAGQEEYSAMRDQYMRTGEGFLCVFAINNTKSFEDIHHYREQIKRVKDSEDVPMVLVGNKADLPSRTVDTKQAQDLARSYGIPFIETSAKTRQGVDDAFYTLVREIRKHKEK

SMILES	IC50 ([1]; Homo sapiens, MIA PaCa-2, 2 h) [nM]	Coupled exchange IC50 (5 min) [2]	IC50 [1] [nM]	IC50 ([2]; read-out: Coupled exchange IC50 (5 min)) [nM]
C=CC(=O)N1CCN(c2nc(=O)n(-c3c(C)ccnc3C(C)C)c3nc(-c4nc(N)ccc4Cl)c(F)cc23)C(C)C1 (atropisomer, axis not shown; (M)) [Example 65-1, (M)-7-(6-Amino-3-chloro-2-pyridinyl)-6-fluoro-1-(4-methyl-2-(2-propanyl)-3-pyridinyl)-4-((2S)-2-methyl-4-(2-propenoyl)-1-piperazinyl)pyrido[2,3-d]pyrimidin-2(1H)-one]	1520	0.606 | nda μM		
C=CC(=O)N1CCN(c2nc(=O)n(-c3c(C)ccnc3C(C)C)c3nc(-c4cc(F)c(F)cc4O)c(F)cc23)[C@@H](C)C1 (atropisomer, axis not shown; (M)) [Example 72-2, (M)-7-(4,5-difluoro-2-hydroxyphenyl)-6-fluoro-1-(4-methyl-2-(2-propanyl)-3-pyridinyl)-4-((2S)-2-methyl-4-(2-propenoyl)-1-piperazinyl)pyrido[2,3-d]pyrimidin-2(1H)-one]	595	0.534 | nda μM		
C=CC(=O)N1CCN(c2nc(=O)n(-c3c(C)ccnc3C(C)C)c3nc(-c4cc(OC)c(F)cc4F)c(F)cc23)[C@@H](C)C1 (atropisomer, axis not shown; (M)) [Example 72-6, (M)-7-(2,4-difluoro-5-methoxyphenyl)-6-fluoro-1-(4-methyl)-2-(2-propanyl)-3-pyridinyl)-4-((2S)-(2-methyl-4-(2-propenoyl)-1-piperazinyl)pyrido[2,3-d]pyrimidin-2(1H)-one]	564	0.315 | nda μM		
C=CC(=O)N1CCN(c2nc(=O)n(-c3c(C)ccnc3C(C)C)c3nc(-c4cc(O)c(F)cc4F)c(F)cc23)[C@@H](C)C1 (atropisomer, axis not shown; (M)) [Example 72-7, (M)-7-(2,4-difluoro-5-hydroxyphenyl)-6-fluoro-1-(4-methyl-2-(2-propanyl)-3-pyridinyl)-4-((2S)-2-methyl-4-(2-propenoyl)-1-piperazinyl)pyrido[2,3-d]pyrimidin-2(1H)-one]	2240	0.262 | nda μM		
C=CC(=O)N1CCN(c2nc(=O)n(-c3c(C)ccnc3C(C)C)c3nc(-c4c(F)ccc(F)c4O)c(F)cc23)[C@@H](C)C1 (atropisomer, axis not shown; (M)) [Example 72-9, (M)-7-(3,6-difluoro-2-hydroxyphenyl)-6-fluoro-1-(4-methyl-2-(2-propanyl)-3-pyridinyl)-4-((2S)-2-methyl-4-(2-propenoyl)-1-piperazinyl)pyrido[2,3-d]pyrimidin-2(1H)-one]	554	0.191 | nda μM		
C=CC(=O)N1CCN(c2nc(=O)n(-c3c(C)ccnc3C(C)C)c3nc(-c4c(N)cccc4F)c(Cl)cc23)[C@@H](C)C1 (atropisomer, axis not shown; (M)) [Example 73-1, (M)-7-(2-Amino-6-fluorophenyl)-6-chloro-1-(4-methyl-2-(2-propanyl)-3-pyridinyl)-4-((2S)-2-methyl-4-(2-propenoyl)-1-piperazinyl)pyrido[2,3-d]pyrimidin-2(1H)-one]			14	12
C=CC(=O)N1CCN(c2nc(=O)n(-c3c(C)ccnc3C(C)C)c3nc(-c4cc(C#N)ccc4F)c(Cl)cc23)[C@@H](C)C1 (atropisomer, axis not shown; (M)) [Example 73-5, (M)-3-(6-chloro-1-(4-methyl-2-(2-propanyl)-3-pyridinyl)-4-((2S)-2-methyl-4-(2-propenoyl)-1-piperazinyl)-2-oxo-1,2-dihydropyrido[2,3-d]pyrimidin-7-yl)-4-fluorobenzonitrile]	228	0.184 | nda μM		

More lines, now with the values ahead:

IC50 ([1]; Homo sapiens, MIA PaCa-2, 2 h) [nM]	Coupled exchange IC50 (5 min) [2]	IC50 [1] [nM]	IC50 ([2]; read-out: Coupled exchange IC50 (5 min)) [nM]	SMILES
100	0.096 | nda μM			C=CC(=O)N1CCN(c2nc(=O)n(-c3c(C)ccnc3C(C)C)c3nc(-c4c(O)cc(F)cc4F)c(F)cc23)[C@@H](C)C1 (atropisomer, axis not shown; (M)) [Example 65-3, (M)-7-(2,4-difluoro-6-hydroxyphenyl)-6-fluoro-1-(4-methyl-2-(2-propanyl)-3-pyridinyl)-4-((2S)-2-methyl-4-(2-propenoyl)-1-piperazinyl)pyrido[2,3-d]pyrimidin-2(1H)-one]
115	0.08 | nda μM			C=CC(=O)N1CCN(c2nc(=O)n(-c3c(C)ccnc3C(C)C)c3nc(-c4c(C)cccc4O)c(F)cc23)[C@@H](C)C1 (atropisomer, axis not shown; (M)) [Example 72-4, (M)-6-fluoro-7-(2-hydroxy-6-methylphenyl)-1-(4-methyl-2-(2-propanyl)-3-pyridinyl)-4-((2S)-2-methyl-4-(2-propenoyl)-1-piperazinyl)pyrido[2,3-d]pyrimidin-2(1H)-one]
91	0.042 | nda μM			C=CC(=O)N1CCN(c2nc(=O)n(-c3c(C)ccnc3C(C)C)c3nc(-c4c(O)ccc(F)c4F)c(F)cc23)[C@@H](C)C1 (atropisomer, axis not shown; (M)) [Example 72-8, (M)-7-(2,3-difluoro-6-hydroxyphenyl)-6-fluoro-1-(4-methyl-2-(2-propanyl)-3-pyridinyl)-4-((2S)-2-methyl-4-(2-propenoyl)-1-piperazinyl)pyrido[2,3-d]pyrimidin-2(1H)-one]
150	0.158 | nda μM			C=CC(=O)N1CCN(c2nc(=O)n(-c3c(C)ccnc3C(C)C)c3nc(-c4c(F)ccc(C)c4O)c(F)cc23)[C@@H](C)C1 (atropisomer, axis not shown; (M)) [Example 72-10, (M)-6-fluoro-7-(6-fluoro-2-hydroxy-3-methylphenyl)-1-(4-methyl-2-(2-propanyl)-3-pyridinyl)-4-((2S)-2-methyl-4-(2-propenoyl)-1-piperazinyl)pyrido[2,3-d]pyrimidin-2(1H)-one]
44	0.039 | nda μM			C=CC(=O)N1CCN(c2nc(=O)n(-c3c(C)ccnc3C(C)C)c3nc(-c4c(N)cccc4F)c(F)cc23)[C@@H](C)C1 (atropisomer, axis not shown; (M)) [Example 72-11, (M)-7-(2-amino-6-fluorophenyl)-6-fluoro-1-(4-methyl-2-(2-propanyl)-3-pyridinyl)-4-((2S)-2-methyl-4-(2-propenoyl)-1-piperazinyl)pyrido[2,3-d]pyrimidin-2(1H)-one]
12	0.021 | nda μM			C=CC(=O)N1C[C@H](C)N(c2nc(=O)n(-c3c(C)ccnc3C(C)C)c3nc(-c4c(N)cccc4F)c(F)cc23)[C@@H](C)C1 (atropisomer, axis not shown; (M)) [Example 72-13, (M)-7-(2-amino-6-fluorophenyl)-4-((2S,6S)-2,6-dimethyl-4-(2-propenoyl)-1-piperazinyl)-6-fluoro-1-(4-methyl-2-(2-propanyl)-3-pyridinyl)pyrido[2,3-d]pyrimidin-2(1H)-one]
55	0.081 | nda μM			C=CC(=O)N1C[C@H](C)N(c2nc(=O)n(-c3c(C)ccnc3C(C)C)c3nc(-c4ccccc4F)c(F)cc23)[C@@H](C)C1 (atropisomer, axis not shown; (M)) [Example 72-14, (M)-4-((2S,6S)-2,6-dimethyl-4-(2-propenoyl)-1-piperazinyl)-6-fluoro-7-(2-fluorophenyl)-1-(4-methyl-2-(2-propanyl)-3-pyridinyl)pyrido[2,3-d]pyrimidin-2(1H)-one]
101	0.067 | nda μM			C=CC(=O)N1CCN(c2nc(=O)n(-c3c(C)ccnc3C(C)C)c3nc(-c4cc(F)ccc4F)c(Cl)cc23)[C@@H](C)C1 (atropisomer, axis not shown; (M)) [Example 73-2, (M)-6-chloro-7-(2,5-difluorophenyl)-1-(4-methyl-2-(2-propanyl)-3-pyridinyl)-4-((2S)-2-methyl-4-(2-propenoyl)-1-piperazinyl)pyrido[2,3-d]pyrimidin-2(1H)-one]
40	0.031 | nda μM			C=CC(=O)N1CCN(c2nc(=O)n(-c3c(C)ccnc3C(C)C)c3nc(-c4cc(C)ccc4F)c(Cl)cc23)[C@@H](C)C1 (atropisomer, axis not shown; (M)) [Example 73-3, (M)-6-chloro-7-(2-fluoro-5-methylphenyl)-1-(4-methyl-2-(2-propanyl)-3-pyridinyl)-4-((2S)-2-methyl-4-(2-propenoyl)-1-piperazinyl)pyrido[2,3-d]pyrimidin-2(1H)-one]
62	0.047 | nda μM			C=CC(=O)N1CCN(c2nc(=O)n(-c3c(C)ccnc3C(C)C)c3nc(-c4cc(Cl)ccc4F)c(Cl)cc23)[C@@H](C)C1 (atropisomer, axis not shown; (M)) [Example 73-4, (M)-6-chloro-7-(5-chloro-2-fluorophenyl)-1-(4-methyl-2-(2-propanyl)-3-pyridinyl)-4-((2S)-2-methyl-4-(2-propenoyl)-1-piperazinyl)pyrido[2,3-d]pyrimidin-2(1H)-one]
